Experimental data from doi:10.1101/2024.11.09.622828v1 (biorxiv, 2024).

Columns and labels:
[1] = biological target: LDH-A (lactate dehydrogenase-A); test: NADH oxidation at […] nm, crude goat liver enzyme; type: biochemical, Capra hircus; conditions: 1.8 mM pyruvate, 5 mM NADH, 50 mM Tris pH 7.6
[2] = biological target: T1, Porcine pancreatic α-amylase (PPA) (Sus scrofa, UniProt P00690); test: DNS reducing sugar assay, […] nm; type: biochemical
T1 sequence (P00690 16-511): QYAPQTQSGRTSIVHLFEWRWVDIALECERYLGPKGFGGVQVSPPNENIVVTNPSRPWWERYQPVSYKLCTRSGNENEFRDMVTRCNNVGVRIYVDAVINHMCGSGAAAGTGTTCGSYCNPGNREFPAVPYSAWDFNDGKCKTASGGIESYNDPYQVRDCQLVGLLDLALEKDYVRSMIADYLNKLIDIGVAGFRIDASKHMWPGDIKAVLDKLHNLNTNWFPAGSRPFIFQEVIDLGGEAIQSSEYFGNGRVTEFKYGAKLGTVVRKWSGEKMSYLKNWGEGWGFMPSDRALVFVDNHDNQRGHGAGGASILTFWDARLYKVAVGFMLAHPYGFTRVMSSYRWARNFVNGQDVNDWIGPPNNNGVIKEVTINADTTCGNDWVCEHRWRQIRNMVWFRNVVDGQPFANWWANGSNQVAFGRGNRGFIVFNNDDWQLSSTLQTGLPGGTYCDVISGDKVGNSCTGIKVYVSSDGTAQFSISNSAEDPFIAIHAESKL

SMILES	IC50 [1] [µM]	IC50 [2] [µM]
O=c1c(O)c(-c2ccc(O)c(O)c2)oc2cc(O)cc(O)c12 [Q, Quercetin]	4.16	
O=C1C[C@@H](c2ccc(O)c(O)c2)Oc2cc(O)cc(O)c21 [E, Eriodictyol]		22
O=c1c(O)c(-c2cc(O)c(O)c(O)c2)oc2cc(O)cc(O)c12 [M, Myricetin]		24
